Assay results: patent US4020076A, “Novel phosphoryloxy-thiazoles” (priority 1974, dated 1977)
Where two headings read alike, the source gives them in different places.

Assays:
Format in all cases: in vivo
Drosophila melanogaster = test: Vapor activity against Drosophila melanogaster; settings: inhaled or nasal, read-out: percentage of mortality
Protocol: a. Activity against Drosophila melanogaster
This test measures the vapor activity of the compounds and the less than 48 hours old insects were placed in a Petri dish with a 10 cm diameter connected by a tergal screen to a crystallizer of the same diameter in which the test compound in acetone solution is placed. The said solution is evaporated after the insects have been placed and 3 tests with 25 insects were run for each concentration. The results are expressed in Table I as a percentage of mortality after 1, 2, 4 and 6 hours.

[1] = tested on: Leptinotarsa Decemlineata; test: Activity against Leptinotarsa Decemlineata larvae; settings: for mortality at 500 µg/mL: 50 g/hl; for mortality at 1000 µg/mL: 100 g/hl
Excerpt: h. Activity againt Leptinotarsa Decemlineata
Eggplant leaves with about 40 cm^ 2 of surface area (10 × 4 cm) were cut out of untreated plants and were washed with water and dried before being immersed for 10 seconds in an acetone solution of the test product. After drying, the leaves were placed in a plastic ventilated dish and 10 larvae of Leptinotarsa Decemlineata in the fourth stage were placed thereon.

Musca domestica = test: Topical application activity against Musca domestica; settings: read-out: percent of mortality
Protocol: d. Activity against Musca domestica
This topical application test consisted of placing a microliter of an acetone solution of the test product on the dorsal thorax of Musca domestica after having been put to sleep with ether. The insects were held at 20° C and 50% relative humidity and were fed milk and water.

Musca domestica larvae = test: Contact-ingestion test against Musca domestica larvae; settings: read-out: percent of mortality
Protocol: g. Activity against Musca domestica larvae
This contact-ingestion test consisted of placing 2 ml of an acetone solution of different concentrations of the test product on 1 g of bran placed in a watch glass and the solvent was evaporated. The treated bran was placed in a plastic dish and was admixed with 2 ml of milk. 20 3 to 4 day old larvae of Musca domestica were added to the bran and were held at 20° C and 30% relative humidity and 3 tests were conducted for each concentration.

Aedes aegypti larvae = test: Activity against Aedes aegypti larvae; settings: for mortality at 0.25 µg/mL: 0.25 mg/l (10^-3 ppm); for mortality at 2.5 µg/mL: 2.5 mg/l (10^-2 ppm); for mortality at 25 µg/mL: 25 mg/l
Protocol: f. Activity against Aedes aegypti larvae
10 Aedes aegypti larvae in the IV stage in 49 ml of water were added to 200 ml of water and 1 ml of an acetone solution of the test product was added thereto.

[2] = tested on: Agrostis Segetum caterpillars; test: Activity against Agrostis Segetum caterpillars
Protocol: i. Activity against Agrostis Segetum caterpillars
Larvae of Agrostis Segetum in the fifth stage were placed in small boxes whose bottom (26 cm on a side) is in the form of a square with a height of 20 cm. The boxes were filled with dirt to a height of 8 cm and 5 lettuce plants of about 15 cm high were planted and 10 caterpillars were placed in each box and after 3 hours, the boxes were each sprayed with 5 ml of an aqueous solution of the test product and the percent of efficacy is reported in Table IX.

Spodoptera littoralis = test: Ingestion test against Spodoptera littoralis caterpillars; settings: po, ingestion, read-out: percent of mortality
Protocol: e. Activity against Spodoptera littoralis
This test was effected with Spodoptera littoralis caterpillars 1 to 1.5 cm long and an average of 10 days old. In this ingestion test, 4 ml of an acetone solution of the test products was placed on lettuce rings with an 8 mm diameter which were placed in closed plastic dishes with a 5 cm diameter. 15 caterpillars were placed in each dish and were held at 20° C and 50% relative humidity and were fed when the insects had eaten the treated lettuce ring.

Sitophilus granarius = test: Topical application test against Sitophilus granarius; settings: read-out: percent mortality
Protocol: c. Test against Sitophilus granarius
This topical application test comprised preparing the test compounds in acetone solution at concentrations of 5000, 500 and 50 mg of the active compound per liter and 0.2 μl of the solutions were applied to the ventral thorax of 50 Sitophilus granarius for each concentration.

[3] = 1 h, read-out: % of mortality after 1 H
[4] = 24 h, read-out: % of mortality after 24 H
[5] = 48 h, read-out: % of mortality after 48 H

Q: How did the mortality at 5 ppm (Drosophila melanogaster; 1 H) turn out when `CCOc1nc(OP(=S)(OC)OC)c(C#N)s1` [Compound C, 2-ethoxy-4-dimethoxythiophosphoryloxy-5-cyano-thiazole] was run?
A: 98%

Q: What about the mortality at 50 ppm (Drosophila melanogaster; 1 H) of the same compound?
A: 100%

Q: What about the mortality at 500 ppm (Drosophila melanogaster; 1 H) of the same compound?
A: 100%

Q: What about the mortality at 5 ppm (Drosophila melanogaster; 4 H) of the same compound?
A: 100%

Q: And the mortality at 50 ppm (Drosophila melanogaster; 4 H)?
A: 100%

Q: And the mortality at 500 ppm (Drosophila melanogaster; 4 H)?
A: 100%

Q: What about the mortality at 5 ppm (Drosophila melanogaster; 6 H) of the same compound?
A: 100%

Q: What about the mortality at 50 ppm (Drosophila melanogaster; 6 H) of the same compound?
A: 100%

Q: What about the mortality at 500 ppm (Drosophila melanogaster; 6 H) of the same compound?
A: 100%

Q: And the mortality at 500 µg/mL [1, 3]?
A: 0%

Q: What about the mortality at 1000 µg/mL [1, 3] of the same compound?
A: 0%

Q: What about the mortality at 500 µg/mL [1, 4] of the same compound?
A: 40%

Q: And the mortality at 1000 µg/mL [1, 4]?
A: 100%

Q: And the mortality at 500 µg/mL [1, 5]?
A: 40%

Q: And the mortality at 1000 µg/mL [1, 5]?
A: 100%

Q: And the mortality at 500 ppm (Musca domestica; 1 H, 500 ppm)?
A: 100%

Q: What about the mortality at 2500 ppm (Musca domestica; 1 H, 2500 ppm) of the same compound?
A: 100%

Q: And the mortality at 5000 ppm (Musca domestica; 1 H, 5000 ppm)?
A: 100%

Q: What about the mortality at 500 ppm (Musca domestica; 24 h) of the same compound?
A: 97%

Q: What about the mortality at 2500 ppm (Musca domestica; 24 h) of the same compound?
A: 100%

Q: And the mortality at 5000 ppm (Musca domestica; 24 h)?
A: 100%

Q: What about the mortality at 500 ppm (Musca domestica larvae; 48 H) of the same compound?
A: 43%

Q: And the mortality at 5000 ppm (Musca domestica larvae; 48 H)?
A: 53%

Q: And the mortality at 500 ppm (Musca domestica larvae; 192 h, 8 Days)?
A: 63%

Q: And the mortality at 5000 ppm (Musca domestica larvae; 192 h, 8 Days)?
A: 73%

Q: And the mortality at 0.25 µg/mL (Aedes aegypti larvae; [4])?
A: 0%

Q: What about the mortality at 2.5 µg/mL (Aedes aegypti larvae; [4]) of the same compound?
A: 0%

Q: What about the mortality at 25 µg/mL (Aedes aegypti larvae; [4]) of the same compound?
A: 100%

Q: And the mortality at 0.25 µg/mL (Aedes aegypti larvae; [5])?
A: 0%

Q: What about the mortality at 2.5 µg/mL (Aedes aegypti larvae; [5]) of the same compound?
A: 0%

Q: What about the mortality at 25 µg/mL (Aedes aegypti larvae; [5]) of the same compound?
A: 100%

Q: What about the Emax ([2]; 72 h, 50 g/hl, read-out: % efficacy after 3 days) of the same compound?
A: 50%

Q: And the Emax ([2]; 72 h, 150 g/hl, read-out: % efficacy after 3 days)?
A: 80%

Q: And the Emax ([2]; 72 h, read-out: % efficacy after 3 days, 100 g/hl)?
A: 25%

Q: And the Emax ([2]; 120 h, 50 g/hl, read-out: % efficacy after 5 days)?
A: 100%

Q: And the Emax ([2]; 120 h, 150 g/hl, read-out: % efficacy after 5 days)?
A: 100%

Q: What about the Emax ([2]; 120 h, read-out: % efficacy after 5 days, 100 g/hl) of the same compound?
A: 50%

Q: What about the Emax ([2]; 168 h, 50 g/hl, read-out: % efficacy after 7 days) of the same compound?
A: 100%

Q: What about the Emax ([2]; 168 h, 150 g/hl, read-out: % efficacy after 7 days) of the same compound?
A: 100%

Q: And the Emax ([2]; 168 h, read-out: % efficacy after 7 days, 100 g/hl)?
A: 100%

Q: What about the mortality at 125 ppm (Spodoptera littoralis; 1 H) of the same compound?
A: 0%

Q: What about the mortality at 250 ppm (Spodoptera littoralis; 1 H) of the same compound?
A: 0%

Q: And the mortality at 500 ppm (Spodoptera littoralis; 1 H)?
A: 0%

Q: And the mortality at 125 ppm (Spodoptera littoralis; 24 H)?
A: 70%

Q: And the mortality at 250 ppm (Spodoptera littoralis; 24 H)?
A: 80%

Q: And the mortality at 500 ppm (Spodoptera littoralis; 24 H)?
A: 100%

Q: What about the mortality at 125 ppm (Spodoptera littoralis; 48 H) of the same compound?
A: 70%

Q: And the mortality at 250 ppm (Spodoptera littoralis; 48 H)?
A: 80%

Q: What about the mortality at 500 ppm (Spodoptera littoralis; 48 H) of the same compound?
A: 100%

Q: And the mortality at 50 ppm (Sitophilus granarius; 4 H)?
A: 0%

Q: What about the mortality at 500 ppm (Sitophilus granarius; 4 H) of the same compound?
A: 0%

Q: And the mortality at 5000 ppm (Sitophilus granarius; 4 H)?
A: 100%

Q: And the mortality at 50 ppm (Sitophilus granarius; 24 H)?
A: 0%

Q: What about the mortality at 500 ppm (Sitophilus granarius; 24 H) of the same compound?
A: 54%

Q: And the mortality at 5000 ppm (Sitophilus granarius; 24 H)?
A: 100%

Q: And the mortality at 50 ppm (Sitophilus granarius; 120 h, 5 Days)?
A: 0%

Q: And the mortality at 500 ppm (Sitophilus granarius; 120 h, 5 Days)?
A: 96%

Q: What about the mortality at 5000 ppm (Sitophilus granarius; 120 h, 5 Days) of the same compound?
A: 100%
